From patent US9205129B2, “Methods of treatment and screening assays for HIF-1α regulation” (University of Rochester, priority 2009, dated 2015)
Peptide text beside a SMILES is read from it. * marks the point of attachment. Cbz = O=C(OCc1ccccc1)*

Legend:
[1] = test system: mouse HIF-1α (Myc-HIF-6×His-V5); assay: Western blot of V5-tagged mouse HIF-1α expressed in N2A neuroblastoma line; assay type: cell-based; settings: N2A cells, 24 hours post-transfection (FIG. 7A)
Protocol: (§1) FIGS. 7A-C illustrate in vitro characterization and purification of HIF-1α cleavage product. […] Effects of MKP overexpression were tested by co-expressing either empty plasmid (pSG5) or vector expressing wildtype MKP-1 (pSG5-MKPwt; compare lanes 1 vs 2 & 3). Parallel samples were also treated with the proteosome inhibitor MG132 to determine whether sub fragments could be stabilized. Full-length and c-terminal fragments were identified using the carboxy-terminal V5 tag. FIG. 7B depicts optimization of expression conditions for human HIF-V5-6×His. Full-length and the proteolytic cleavage form of human HIF-1α are observed when expressed in the mouse N2A line. Other bands are shown as present in both samples and are cross reactive contaminants with V5 antibody. FIG. 7C illustrates affinity purification of the c-terminal HIF-1α fragment using the 6×His tag resin. N2A cells were transfected with the empty (pUB6-MCS) or HIF-expressing plasmids (pUb6-hHIF) and exposed to MG132 to induce fragment accumulation.
Cell lysates were obtained by rinsing monolayers with ice-cold PBS×1 followed by the addition of RIPA buffer containing both protease and phosphatase inhibitor cocktails (Sigma-Aldrich, St. Louis, Mo.). Samples were boiled in Laemmeli buffer and electrophoresed under reducing conditions on polyacrylamide gels. […]

HIF-1α (myc-HIF-V5) = assay: Cycloheximide pulse-chase / Western blot of myc-HIF-V5 in transfected HN33 cells; assay type: cell-based, mouse
Protocol: Cell lysates were obtained by rinsing monolayers with ice-cold PBS×1 followed by the addition of RIPA buffer containing both protease and phosphatase inhibitor cocktails (Sigma-Aldrich, St. Louis, Mo.). Samples were boiled in Laemmeli buffer and electrophoresed under reducing conditions on polyacrylamide gels. Proteins were transferred to PVDF membranes and blocked in TBS-T ([…] Tris-HCl, pH 8.0, 0.9% NaCl, and 0.1% Tween-20™) containing 5% non-fat dry milk for 1 h at room temperature. Antibodies used in this study included: NeuN (Chemicon, Temecula, Calif.; 1:500), GFP, HIF-1α (Novus Biologicals, NB-100-449 and NB-100-131, Littleton, Colo.), TUJ1 & MKP-1 (Santa Cruz Biologicals, San Diego, Calif.; 1:500) Caspase 9, cleaved caspase-3, -9, -12, and cleaved PARP (CST, Danvers, Mass.). Blots were exposed to HRP conjugated secondary antibodies (Santa Cruz Biologicals, CA) prior to chemiluminescent detection (Amersham). To resolve molecular weight changes in HIF-1α, crude lysates were run on 15% PAGE gels.
The cDNA for mouse HIF-1α was generated by RT-PCR using total cDNA from HN33.11 cultures using Superscript III according to the manufacturer's instructions using the random hexamer method (Invitrogen, Carlsbad, Calif.). PCR was performed using forward (5′-[…]-3′ (SEQ ID NO:1)) and reverse (5′-TCAG-[…]-3′ (SEQ ID NO:2)) primers as described (Chun et al., “A New HIF-1 Alpha Variant Induced by Zinc Ion Suppresses HIF-1-Mediated Hypoxic Responses,” J. Cell Sci. 114:4051-61 (2001), which is hereby incorporated by reference in its entirety), and the cDNA was sub-cloned to pCDNA3.1 and sequenced in its entirety. This sequence was sub-cloned by PCR using high fidelity polymerase and both the forward primer (5′-GCGGGATCCA […] GAA-3′ (SEQ ID NO:3)) containing a BamHI site followed by a Kozak consensus sequence and the Myc epitope tag and the reverse primer (5′-ggggcggccgcTAA CTTGATCCAAAGC […]-3′ (SEQ ID NO:4)) containing the Not I site allowing in frame ligation with the V5-6×His tag in pUB6-V5-6×HIS (Invitrogen). […]

[2] = test system: human HIF-1α (HIF-V5-6×His); assay: Western blot of human HIF-1α fusion expressed in N2A line; assay type: cell-based; settings: human HIF-1α fusion in N2A line treated with MG132 (FIG. 7B)
Protocol: as §1
The addition of MKPwt reduced overall levels of both full-length and C-terminal fragments. […] Bands correlating to full length (approximately 110 kDa) and the c-terminal fragment (running at approximately 48 kDa) were isolated from polyacrylamide gels and subjected to LC-MS/MS. […]

HIF-1α = settings: effect of lambda phosphatase, compared with MEK inhibitor; cited from earlier work

Row | Structure (SMILES) | detection of V5-reactive C-terminal fragment of HIF-1α [1] | induction of LMW-HIF-1α species (HIF-1α (myc-HIF-V5); FIG. 4D legend, HN33 lysates, CHX pulse-chase and MG132) | effect on MKP-1 mediated destabilization of HIF-1α (HIF-1α (myc-HIF-V5); HN33 cells transfected with dual-tagged vector, normoxic, cycloheximide pulse chase (FIG. 4D)) | accumulation of intermediate myc-HIF-V5 species (HIF-1α (myc-HIF-V5); HN33 cells, independent of MKP-1 levels (FIG. 4D, double asterisk)) | formation of c-terminal HIF-1α fragment [2] | reduction of HIF-1α complex doublet to a single 103 kDa band (HIF-1α)
1 | CC(C)C[C@@H](C=O)NC(=O)[C@H](CC(C)C)NC(=O)[C@H](CC(C)C)NC(=O)OCc1ccccc1 [MG132] (Cbz-Leu-Leu-Leu-aldehyde) | detected only after treatment | inducing several LMW-HIF-1α species | negate the destabilizing effect of MKP-1 | enhanced the accumulation | produced the expected c-terminal HIF-1α fragment | 
2 | COc1cccc(-c2cc(=O)c3ccccc3o2)c1N [PD98059] |  |  |  |  |  | effect mimicked
